Measurements from patent US7524510B2, “Alkyl-glycoside enhanced vaccination” (The UAB Research Foundation, priority 2005, dated 2009).

Experiments:
[1] = test system: mice; assay: Enhancement of potency of E. coli-vectored epicutaneous vaccine, co-administered without ablation of the stratum corneum; format: in vivo, mouse; conditions: topical E. coli vector expressing tetC mixed with TDM, skin not ablated by brushing, sera 2 months postimmunization
Protocol: Preliminary tests of the ability of tetradecyl-β-D maltoside (purchased from Anatrace) to enhance the potency of an E. coli-vectored epicutaneous vaccine when co-administered without ablation of the stratum corneum were conducted. Specifically, mice were immunized by topical application of an E. coli vector expressing tetC mixed with TDM at the indicated concentration and sera were analyzed 2 months postimmunization.

[2] = test system: mice; assay: Enhancement of potency of adenovirus-vectored epicutaneous vaccine, co-administered without ablation of the stratum corneum; format: in vivo, mouse; conditions: topical adenovirus vector expressing tetC mixed with TDM, no ablation of stratum corneum, sera 1 month postimmunization
Protocol: Tests of the ability of TDM to enhance the potency of an adenovirus-vectored epicutaneous vaccine when co-administered without ablation of the stratum comeum were also conducted. Here, mice were immunized by topical application of an adenovirus vector expressing tetC mixed with TDM at the indicated concentration, and sera were analyzed 1 month postimmunization.

[3] = test system: Mouse skin; assay: Permeabilization of stratum corneum, electron microscopy of cutaneous architecture; format: in vivo; conditions: mouse skin ablated by mechanical brushing, topical TDM incubated 15 min with naked skin
Protocol: Mouse skin was ablated by mechanical brushing prior to topical application of TDM, followed by incubation of TDM at the indicated concentration with naked skin for 15 min, followed by examination of the cutaneous architecture under an electron microscope.

## CCCCCCCCCCCCCCO[C@@H]1O[C@H](CO)[C@@H](O[C@H]2O[C@H](CO)[C@@H](O)[C@H](O)[C@H]2O)[C@H](O)[C@H]1O [TDM, tetradecyl-β-D-maltoside]
[1]
  enhancement of the potency of an E. coli-vectored epicutaneous vaccine (sera analyzed): No increase over the control
[2]
  enhancement of the potency of an adenovirus-vectored epicutaneous vaccine (sera analyzed): No significant increase over the control
[3]
  effect on stratum corneum (cutaneous architecture under electron microscope): permeablization of the stratum comeum
